Two compounds from US8569472B2, “Efficient cell culture system for hepatitis C virus genotype 6A” (priority 2007, dated 2013) can be followed below.

The assay relates to JFH1-based recombinants of genotypes 1a, 1b, 2a, 2b, and 6a. The format is cell-based, hepatitis C virus. Conditions: 500 IU/mL interferon-α2b, 20 μM ribavirin or 50 μM amantadine; for decrease in supernatant HCV RNA titers / decrease in the number of infected cells: 72 hrs, Huh7.5 cultures infected with genotype 1a/1b, 2a/2b and 6a recombinants.

The structures appear in SMILES notation.

For `NC12CC3CC(CC(C3)C1)C2` [amantadine], the “antiviral effect of treatment (infected cells and supernatant HCV RNA titers)” value is reported as “no apparent effect”; the “decrease in supernatant HCV RNA titers” value was “did not decrease”; the “decrease in the number of infected cells” value is on record as “did not decrease”.

For `NC(=O)c1ncn([C@@H]2O[C@H](CO)[C@@H](O)[C@H]2O)n1` [ribavirin], the “antiviral effect of treatment (infected cells and supernatant HCV RNA titers)” value is “no apparent effect”; the “decrease in supernatant HCV RNA titers” value was “did not decrease”; the “decrease in the number of infected cells” value is recorded as “did not decrease”.
